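48-hour exposure; five concentrations; linearly interpolated endpoints. Abbreviation: GI50, concentration required for 50% inhibition of growth. TGI marks complete inhibition of growth.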
Experiments:
Assay in all cases: growth of human tumour cells (NCI), 48 h
A549 NSCLC = test system: A549 NSCLC
HOP-62 NSCLC = test system: HOP-62 NSCLC
KM12 colon = test system: KM12 colon
MALME-3M melanoma = test system: MALME-3M melanoma
NCI-H522 lung = test system: NCI-H522 lung
SK-OV-3 ovarian = test system: SK-OV-3 ovarian
U251 CNS = test system: U251 CNS
UACC-257 melanoma = test system: UACC-257 melanoma
UO-31 renal = test system: UO-31 renal
A498 renal = test system: A498 renal

Row | SMILES | TGI (A549 NSCLC) | TGI (HOP-62 NSCLC) | TGI (KM12 colon) | TGI (MALME-3M melanoma) | TGI (NCI-H522 lung) | TGI (SK-OV-3 ovarian) | TGI (U251 CNS) | TGI (UACC-257 melanoma) | TGI (UO-31 renal) | TGI (A498 renal) | GI50 (A498 renal) | GI50 (A549 NSCLC) | GI50 (HOP-62 NSCLC) | GI50 (KM12 colon) | GI50 (MALME-3M melanoma) | GI50 (NCI-H522 lung) | GI50 (SK-OV-3 ovarian) | GI50 (U251 CNS) | GI50 (UACC-257 melanoma)
1 | CC(C)(C)OC(=O)NCCNC(=O)OCc1ccccc1 | > 100 µM | > 100 µM | > 100 µM | > 100 µM | > 100 µM | > 100 µM | > 100 µM | > 100 µM | > 100 µM |  |  |  |  |  |  |  |  |  | 
2 | OB1OCc2ccccc21 | > 100 µM | 62.9 µM | > 100 µM | > 100 µM |  | 47.1 µM | > 100 µM | > 100 µM | > 100 µM | > 100 µM |  |  |  |  |  |  |  |  | 
3 | O=C1NC(N2CCCC(CO)C2)=N/C1=C\c1ccc(O)cc1 (configuration not stated) | > 100 µM | > 100 µM | > 100 µM | > 100 µM | > 100 µM | > 100 µM | > 100 µM | > 100 µM | > 100 µM |  |  |  |  |  |  |  |  |  | 
4 | COc1ccccc1C1C(Cl)C(=O)N1NC(=O)Cc1ccccc1 (configuration not stated) | > 100 µM | > 100 µM | > 100 µM | > 100 µM | > 100 µM | > 100 µM | > 100 µM | > 100 µM | > 100 µM |  |  |  |  |  |  |  |  |  | 
5 | COc1ccc2c(c1)CCC1C2CCC2(C)C1CC[C@@]2(O)CNC(=O)/C=C/c1ccc(O)c(O)c1 (some centres not stated) | 29.3 µM | 79.1 µM | 7.82 µM | 9.6 µM | 2.19 µM | > 100 µM | 4.41 µM | 35.7 µM |  | 39.8 µM | 18.8 µM | 3.95 µM | 5.59 µM | 2.44 µM | 3.56 µM | 0.503 µM | 14.8 µM | 1.65 µM | 18.5 µM
6 | CCOC(=O)C1C(=O)C=C(c2cc(C)ccc2O)CC1c1cccc(Br)c1 (configuration not stated) | 51.2 µM | > 100 µM | 47.4 µM | 42.4 µM | 35.1 µM | 43.1 µM | 32 µM | 38 µM | 56.6 µM |  |  |  |  |  |  |  |  |  | 
7 | COc1nc(NC2OCC(OC(C)=O)C(OC(C)=O)C2OC(C)=O)c(N=C(C)C(C)=O)c(=O)n1C (configuration not stated) | > 100 µM |  | > 100 µM | > 100 µM |  |  | > 100 µM | > 100 µM | > 100 µM | > 100 µM |  |  |  |  |  |  |  |  | 
8 | CN1C(=N\S(=O)(=O)c2ccc(Cl)cc2)/C(=N/N=P(c2ccccc2)(c2ccccc2)c2ccccc2)c2ccccc21 | > 100 µM |  | > 100 µM | > 100 µM | > 100 µM | > 100 µM | > 100 µM | > 100 µM | > 100 µM | > 100 µM |  |  |  |  |  |  |  |  | 
9 | CC(C)(Oc1ccc(C2C[C@H]2Cl)cc1)C(=O)O (some centres not stated) | > 100 µM | > 100 µM | > 100 µM |  | > 100 µM | > 100 µM | > 100 µM | > 100 µM |  | > 100 µM |  |  |  |  |  |  |  |  | 
10 | O=C(CSCC(=O)N/N=C\c1cc(Br)cc(Br)c1O)N/N=C\c1cc(Br)cc(Br)c1O | > 100 µM | > 100 µM | > 100 µM | 42.5 µM | 50.9 µM | > 100 µM | 22.3 µM | 62 µM | 49.6 µM |  |  |  |  |  |  |  |  |  | 
11 | COc1ccc(/C=N/NC(=O)c2ccccc2Nc2ccccc2C(=O)N/N=C/c2ccc(OC)c(OC)c2)cc1OC | > 100 µM | > 100 µM | > 100 µM | > 100 µM |  | > 100 µM | > 100 µM | > 100 µM | > 100 µM | > 100 µM |  |  |  |  |  |  |  |  | 
12 | O=C(Cl)c1cc([N+](=O)[O-])cc([N+](=O)[O-])c1 | > 100 µM | > 100 µM | > 100 µM | > 100 µM | > 100 µM | > 100 µM | > 100 µM | > 100 µM | > 100 µM |  |  |  |  |  |  |  |  |  | 
13 | CCC1(CC)C(=O)N(C(=O)c2ccc(Cl)cc2)N(C(=O)c2ccccc2Cl)C1=O | > 100 µM | > 100 µM | > 100 µM | > 100 µM | 48.1 µM | > 100 µM | > 100 µM | > 100 µM | > 100 µM |  |  |  |  |  |  |  |  |  | 
14 | C[Si](C)(C)C1=C2C(=O)c3ccccc3C(=O)C2=C([Si](C)(C)C)[C@@H]2CCCC[C@H]12 | > 100 µM |  |  | > 100 µM | > 100 µM | > 100 µM | > 100 µM | > 100 µM | > 100 µM | > 100 µM |  |  |  |  |  |  |  |  | 
15 | O=C(C(Cl)=C(Nc1ccccc1)Nc1ccccc1)C(Cl)Cl | > 100 µM | 69.7 µM | > 100 µM | 45 µM | 37.4 µM | 94.6 µM |  | > 100 µM | > 100 µM | 74.5 µM |  |  |  |  |  |  |  |  | 
16 | N#C/C(=C/NC(=S)Nc1ccc(S(N)(=O)=O)cc1)C(N)=O | > 100 µM | > 100 µM | > 100 µM | > 100 µM | > 100 µM | > 100 µM | > 100 µM | > 100 µM |  | > 100 µM |  |  |  |  |  |  |  |  | 
17 | Cc1c2cccc-2c(N(C)C)cc2c1[nH]c1ccccc12 | 18.6 µM | 15.1 µM | 7.98 µM | 10.9 µM |  | 15.1 µM | 4.01 µM | 26.4 µM | 7.93 µM | 37.8 µM |  |  |  |  |  |  |  |  | 
18 | CC1=C2CC3=C(C)C(=O)O[C@H]3C[C@@H](C)[C@@H]2CC1 |  |  | > 100 µM | > 100 µM |  | > 100 µM | > 100 µM | > 100 µM | > 100 µM | > 100 µM |  |  |  |  |  |  |  |  | 
19 | CC(=S)NC1C(Oc2ccc3c(C)cc(=O)oc3c2)OC(CO)C(O)C1O (configuration not stated) | > 100 µM | > 100 µM | > 100 µM |  |  | > 100 µM | > 100 µM | > 100 µM | > 100 µM | > 100 µM |  |  |  |  |  |  |  |  | 
20 | COc1cc(C=Nc2ccc(Oc3ccc(Cl)cc3)c(Cl)c2)cc(OC)c1OC | 44.7 µM | 49 µM | 38.1 µM | 35.8 µM | 28.1 µM |  | 40.8 µM | 47.7 µM | 23.2 µM |  |  |  |  |  |  |  |  |  | 
21 | O=c1n(CCO)nc2n1CCCN2 | > 100 µM | > 100 µM | > 100 µM | > 100 µM |  | > 100 µM | > 100 µM |  | > 100 µM |  |  |  |  |  |  |  |  |  | 
22 | C=CC(C)(C)c1cc([C@@H]2COc3cc(O)ccc3C2=O)c(O)c(OC)c1OC | 52 µM |  | 27.8 µM | 43.2 µM | 20.9 µM | 36.7 µM | 26.8 µM | 44.9 µM | 28.3 µM | 35.4 µM |  |  |  |  |  |  |  |  | 
